These results are taken from patent US20180055835A1, “Method for Treating And Preventing Protozoal Infections” (priority 2016, published 2018).

Data set [1] deals with Leishmania donovani topoisomerase I (LdTOPILS). Particulars: inhibitor of LdTOPILS; Roy A., et al., Biochemical Journal 2007; cited from earlier work.
Data set [2] has as its system Py13XL malaria (P. falciparum). Description: Prevention of malaria by naltrexone in mice (dosing 7 days before infection). In kind it is in vivo, BABL/C mice. As to conditions: for more mice died: on 6 d. How it is done:
(§1) • 45 BABL/C mice, six weeks old, were divided into 5 groups, 9 mice for each group. […] The survival was recorded from the first day of infection and infected rate of malaria are recorded from the third day of infection by taking tail vein blood, smearing glass slide, Gimsa staining and checking parasitemia under microscope.

The subject of data set [3] is Py13XL malaria. Described as above. In kind it is in vivo, BABL/C mice. As to conditions: oral, 7 days before infection, on 5 d, 9 mice per group. How it is done: as §1
Data set [4] relates to Py13XL malaria. Description: Anti-malaria effect (treatment) with naltrexone in infected mice. In kind it is in vivo, BABL/C mice. Particulars: for mice died: on 5 d. How it is done:
(§2) • 45 BABL/C mice, six weeks old, were divided into 5 groups, 9 mice for each group. […] The survival was recorded from the third day of infection and infected rate of malaria are recorded by taking tail vein blood, smearing glass slide, Gimsa staining and checking parasitemia under microscope. • Finally changes of immune parameters in peripheral blood were measured by flow cytometry technology and made comparison to control.

For data set [5], the system named is immune cells in peripheral blood. Description: Changes of immune parameters in peripheral blood post treatment, flow cytometry. In kind it is in vivo, BABL/C mice. Particulars: treatment group after low dose naltrexone. How it is done:
as §2

A further data set relates to malaria. In words: Case reports: relapse of malaria in patients given LDN. In kind it is in vivo, human. How it is done:
• A patient with HIV suffering from malaria has had relapses at least twice a year for the last five years.
• A person has suffered on and off from malaria for 40 years. The patient was administered 4.5 mg of LDN per day, as an adjunct treatment with chemotherapy.

Setting [6] is: 0.5 mg naltrexone per mouse, oral, 7 days before infection, 9 mice per group.
The mark [7] stands for this setting: 1 mg naltrexone per mouse, oral, 7 days before infection, 9 mice per group.
Where [8] appears, read: 0.5 mg naltrexone treating group, oral daily 15 days from 2 d post infection, 9 mice per group.
[9] abbreviates: 1 mg naltrexone treating group, oral daily 15 days from 2 d post infection, 9 mice per group.

In the case of `c1ccc2c(Cc3c[nH]c4ccccc34)c[nH]c2c1` [DIM], the IC50 (in general, the point on the concentration scale where inhibition reaches its midpoint) in data set [1] is 1200 nM.
In the case of `O=C1CC[C@@]2(O)[C@H]3Cc4ccc(O)c5c4[C@@]2(CCN3CC2CC2)[C@H]1O5` [naltrexone], in data set [2] (setting [6]), the “mice still alive at the end point” value turned out to be 1 mice. Moreover, the more mice died in data set [2] (setting [6]) is 7 mice; in data set [2] (setting [7]), 5 mice; in data set [2] (2 mg naltrexone per mouse, oral, 7 days before infection, 9 mice per group), 5 mice; with Py13XL malaria [4] (0.5 mg naltrexone treating group, oral daily 15 days from 2 d post infection, on 6 d, 9 mice per group) it was 4 mice; in the data set with Py13XL malaria [4] (1 mg naltrexone treating group, oral daily 15 days from 2 d post infection, on 6 d, 9 mice per group), 2 mice; with Py13XL malaria [4] (1 mg naltrexone treating group, oral daily 15 days from 2 d post infection, on 9 d, 9 mice per group) it was 1 mice. This molecule also came in with a more mice died in the data set with Py13XL malaria [4] (2 mg naltrexone group, oral daily from 2 d post infection, on 6 d, 9 mice per group) of 4 mice. In addition, the “protecting effect compared between dose groups” value in data set [2] (1 mg naltrexone per mouse versus 0.5 mg and 2 mg) was “best protecting effect”. In data set [2] (1 mg naltrexone per mouse, oral, 7 days before infection), this molecule yielded a survival rate of 33.3%. Also, the “mice still alive till the end point” value in data set [2] (setting [7]) came out at 3 mice. In addition, the parasitemia result is reported as “all infection parasitemia disappeared” in data set [2] (1 mg naltrexone per mouse, surviving mice, on 20 d) and “parasitemia disappeared” in the data set with Py13XL malaria [4] (1 mg naltrexone treating group, surviving mice, on 20 d). The mice died with Py13XL malaria [3] (0.5 mg naltrexone per mouse) is 1 mice; in the data set with Py13XL malaria [3] (1 mg naltrexone per mouse), 1 mice; in the data set with Py13XL malaria [3] (2 mg naltrexone per mouse) it was 4 mice; in the data set on Py13XL malaria [4] (setting [8]), 2 mice; in the data set with Py13XL malaria [4] (setting [9]), 0 mice; with Py13XL malaria [4] (2 mg naltrexone group, oral daily from 2 d post infection, 9 mice per group) it was 5 mice. In addition, the “mice still alive for end point” value in the data set with Py13XL malaria [4] (setting [8]) came out at 3 mice. Moreover, the “treatment effect compared between dose groups” value with Py13XL malaria [4] (1 mg naltrexone group versus 0.5 mg and 2 mg) is given as “best treatment”. Moreover, the “mice still alive till end point” value in the data set with Py13XL malaria [4] (setting [9]) was determined as 6 mice. Also, the toxicity to animals result in the data set with Py13XL malaria [4] (2 mg naltrexone, infected mice) is listed as “shows toxicity”. This molecule also gave a Total nucleated cell in data set [5] (control 1.30 ± 0.13, P < 0.01) of 4.21 ± 0.75. In data set [5] (control 4.22 ± 0.64, P < 0.01), this molecule yielded a Treg cell of 2.15 ± 0.48. Further, the NK cell in data set [5] (control 7.58 ± 1.59, P < 0.01) is given as 20.39 ± 4.42. Besides, the Macrophage in data set [5] (control 9.18 ± 0.26, P < 0.01) is listed as 12.1 ± 0.56. The “CD4+ T cell” value in data set [5] (control 22.65 ± 3.48, P < 0.01) is on record as 34.81 ± 5.78. In data set [5] (control 35.33 ± 3.62, P < 0.01), the “CD8+ T cell” value was 59.63 ± 3.78. The “CD3+ T cell” value in data set [5] (control 48.90 ± 4.06, P < 0.01) stood at 67.04 ± 4.20. Besides, the “time without relapse of malaria” value is 24 months in the data set with malaria (patient with HIV, relapses at least twice a year before, 4.5 mg per day as adjunct treatment for HIV); “over 24 months” in the data set on malaria (person, malaria on and off for 40 years, 4.5 mg per day, adjunct with chemotherapy).
